A short description of data set [1]: Human liver microsome stability test. The following applies: for Remaining percentage (%) of compound after incubation for 30 min: NADPH, 37° C.; for half-life at 1 µM: human. (Liver microsomes are vesicles of endoplasmic reticulum, rich in cytochrome P450 enzymes.)
Method: The human liver microsome stability test was performed by incubating the compound and human liver microsomes in vitro for detection. First, the test compound was prepared into a 10 mM stock solution in DMSO solvent, and then the compound was diluted to 0.5 mM with acetonitrile. Human liver microsomes (Corning) were diluted with PBS and prepared as a microsome/buffer solution, which was used to dilute the 0.5 mM compound solution into a working solution. […] A deep-well multi-well plate was taken, 30 μL of the working solution and 15 μL of pre-warmed NADPH solution (6 mM) were sequentially added to each well to initiate a reaction, and the reaction was incubated at 37° C. […] After centrifugation, the supernatant was collected, and added with purified water in a ratio of 1:1 to perform LC-MS/MS detection. […] T1/2 was calculated by using Excel.
For data set [2], the target named is T1, hERG channels (CHO cell line stably expressing hERG) (Homo sapiens, UniProt Q12809). The data set is described as follows: cell-based.
Method: (§4) Full-automatic electrophysiological patch clamp QPatch was used to detect the inhibitory effect of compounds on hERG. Cells used in this test were CHO cell line transfected with cDNA of hERG and stably expressing hERG channels (provided by Sophion Bioscience, Denmark), and the cell passage number was P24. The cells were cultured in a medium containing the following components (all purchased from Invitrogen): Ham's F12 medium, inactivated fetal bovine serum (10% (v/v)), hygromycin B (100 μg/ml), and Geneticin (100 μg/ml). CHO hERG cells were grown in a petri dish containing the above-mentioned medium and cultured in an incubator at 37° C. and containing 5% CO2.
(§5) The test compound was prepared into a 10 mM stock solution in DMSO solvent, the compound was diluted to 3 mM, 1 mM, 0.3 mM, and 0.1 mM with DMSO, and then the compound was diluted to 30 μM, 10 μM, 3 μM, 1 μM, 0.3 μM and 0.1 μM with the extracellular fluid, so that except that the final concentration of DMSO in the 30 μM compound was 0.3%, the final concentration of DMSO in compound solutions of all other concentrations was 0.10%.
(§6) The CHO hERG cells, after being digested and resuspended, were added to the full-automatic QPatch system (Sophion, Denmark), and subjected to a test according to the following preset procedure.
(§7) After reaching the ruptured whole cell configuration state in the initial stage, the whole cell current was recorded at room temperature (about 25° C.) for at least 120 seconds in order to achieve stability. The stable cells were selected for the test. During the whole test, the cells were clamped at a voltage of −80 mV, the cell clamp voltage was depolarized to +20 mV to activate the hERG potassium channels, and after 2.5 seconds, the cell clamp voltage was at −50 mV to eliminate inactivation and generate outward tail current. The peak tail current was used as the value of the hERG current. The voltage mode described above was applied to the cells for electrophysiological test every 15 seconds. An intracellular liquid containing 0.1% dimethyl sulfoxide (solvent) was added to the cells to establish a baseline, and then the current was allowed to stabilize for 3 min. After the compound solution was added, the cells were kept in the test environment until the effect of the compound reached a steady state or until reaching 4 min. In the test experiments with different concentration gradients of the compound, the compound was added from low to high concentration to the clamped cells. After the compound test was finished, the cells were washed with the extracellular fluid until the current returned to a stable state. The test data was analyzed by Qpatch analysis software provided by Sophion, Excel, and Graphpad Prism, etc.
Data set [3] can be described thus: Pharmacokinetic test in rats. It is filed as in vivo. As to conditions: male SD rats, oral gavage 10 mg/kg. As for the experimental part: (§1) For the pharmacokinetic test of rats, 3 male SD rats (180-240 g) were used, and fasted overnight. The rats were orally administered by gavage (10 mg/kg). […] The blood samples were centrifuged at 8,000 rpm at 4° C. for 6 min, and plasma was collected and stored at −20° C. The plasma at each time point was taken and added with an acetonitrile solution containing internal standard in 3 to 5 times the amount, vortexed and mixed for 1 min, and centrifuged at 13,000 rpm at 4° C. for 10 min. The supernatant was collected, added with water in 3 times the amount, and mixed. An appropriate amount of the mixture was taken for LC-MS/MS analysis. The main pharmacokinetic parameters were analyzed using WinNonlin 7.0 software with non-compartmental model.

A short description of data set [4]: Pharmacokinetic test in canines. Format: in vivo. As to conditions: dog, plasma; male beagle dogs, oral gavage 5 mg/kg. As to the method: as §1
For the pharmacokinetics test of canines, 3 male beagle dogs (8 to 10 kg) were used, and fasted overnight. The dogs were orally administered by gavage (5 mg/kg). The rest of the operation is the same as the pharmacokinetic test in rats.

Data set [5] concerns the target T2, autotaxin (ATX) enzyme (Homo sapiens, UniProt Q13822).
T2 construct: purchased Cayman 700580
Briefly: Autotaxin (ATX) enzyme activity inhibition test (Cayman Autotaxin Inhibitor Screening Assay Kit). As to conditions: 37° C., 30 min, OD405, read-out: IC50, inhibitory effect on ATX enzyme activity. Format: biochemical. As for the experimental part: The inhibitory effects of the compounds on the autotaxin enzyme were detected using the Autotaxin Inhibitor Screening Assay Kit (Cayman, 700580). […] Subsequently, the 8 concentrations were diluted with Autotaxin Assay buffer (1×) provided in the kit into 19× compound working solutions (DMSO content was 1.9%). The Autotaxin Assay Reagent (10×) was taken out and diluted by 10 times with Autotaxin Assay Buffer (1×). The Autotaxin Substrate was taken out, dissolved by adding 1.2 mL of Autotaxin Assay Buffer (1×), mixed evenly and let stand by at room temperature. In a 96-well plate, 150 μL of Autotaxin Assay Buffer (1×), 10 μL of the prepared and diluted 19× compound working solution, 10 μL of Autotaxin Assay Reagent (1×), and 20 μL of the dissolved Autotaxin Substrate were added to each of the wells for each concentration, and homogenously mixed. The 96-well plate was shaken in a constant temperature shaker at 37° C. and incubated in the dark for 30 min, and then the plate was taken out and placed on a microplate reader to read OD405.

Data set [6] has as its target T3, ATX enzyme in human plasma (Homo sapiens, UniProt Q13822).
T3 construct: Whole blood was collected from healthy volunteers and anticoagulated with heparin; from tissue; host or cells: human plasma (heparin) from healthy volunteers
The data set is described as follows: Inhibition of activity of ATX enzyme in human plasma (LPA18:2 formation, LC-MSMS). The following applies: for IC50: human plasma, 37° C., 3 h, LPA18:2 formation, read-out: IC50, inhibitory effect on activity of ATX enzyme in human plasma. Format: biochemical. As to the method:
Whole blood was collected from healthy volunteers and anticoagulated with heparin. The blood collection tubes were centrifuged at 3,000 rpm for 10 min, and the plasma was taken and stored at −80° C. for use.
The compound was serially diluted with DMSO according to the conventional concentration requirements, then 3 μL of each of the diluted compound solutions was added to a 96-well plate, and 147 μL of PBS was added to each well containing 3 μL of the compound solution. After mixing homogenously, 50 μL of the mixture was taken out and added to a new 96-well plate. The human plasma was taken out from the −80° C. refrigerator and thawed through rapid shaking in a 37° C. water bath. 50 μL of the human plasma was taken and added to the 96-well plate containing 50 μL of the diluted compound (the final system contained 1% DMSO). The group without the compound was set as the positive group. The 96-well plate was shaken and mixed uniformly, and incubated at 37° C. for 3 h. A blank group was also provided, and the plasma of the blank group was stored at −80° C. The blank group is provided to determine the baseline concentration of endogenous LPA.
After the incubation was finished, the blank group was thawed on ice and transferred to an incubation plate. Excess acetonitrile containing the internal standard LPA17: 0 was added to the incubation plate to precipitate the plasma protein. After vortex centrifugation, the supernatant was taken and diluted, and a peak area of LPA18: 2 and a peak area of internal standard LPA17: 0 were detected using LC-MSMS mass spectrometry.
(§2) A ratio of the peak area of LPA18: 2 to the peak area of internal standard LPA17: 0 was calculated, and a formation inhibition rate of LPA18: 2 was calculated according to the following formula:
(§3) Inhibition rate (%)=100−(compound group with different concentrations−blank group)/(positive group−blank group)*100
According to the inhibition rates of different concentrations of the compound, the IC50 value of the compound for inhibiting activity of ATX enzyme in human plasma was calculated.

Data set [7] deals with T4, ATX enzyme in rat plasma (Rattus norvegicus, UniProt Q64610).
T4 construct: Whole blood was collected from rats and anticoagulated with heparin; from tissue; host or cells: rat plasma (heparin)
The data set is described as follows: Inhibition of activity of ATX enzyme in rat plasma (LPA18:2 formation, LC-MSMS). It is filed as biochemical. As for the experimental part:
Whole blood was collected from rats and anticoagulated with heparin. The blood collection tubes were centrifuged at 3,000 rpm for 15 min, and the plasma was placed on ice for use.
The compound was serially diluted with DMSO: 30% ACN=1:19 according to the conventional concentration requirements, and then placed on ice. 147 μL of plasma, which was placed on ice, was added to a 96-well plate, and then 3 μL of each of the gradient solutions of the compound (finally 1[…] DMSO) was added. A group containing none of the compounds was set as the positive group. The 96-well plate was mixed uniformly, and incubated at 37° C. for 3 h. In addition, a blank group was also provided. At the beginning of the incubation, the plasma of blank group was added to with excessive acetonitrile containing the internal standard LPA17: 0 to precipitate the plasma protein, vortexed to mix, and stored at 4° C. The blank group was provided to determine the baseline concentration of endogenous LPA.
A peak area of LPA18: 2 and a peak area of internal standard LPA17: 0 were detected using LC-MSMS mass spectrometry.
as §2, §3
According to the inhibition rates of different concentrations of the compound, the IC50 value of the compound for inhibiting activity of ATX enzyme in rat plasma, was calculated.

Data set [8] addresses T1, hERG channels (CHO cell line stably expressing hERG). The data set is described as follows: Inhibitory effect on hERG by full-automatic electrophysiological patch clamp QPatch. The following applies: hERG IC50 (μM) divided by ATX enzyme IC50 (nM). In general terms: hERG is a cardiac potassium channel; its block is linked to QT prolongation.
Method: as §4, §5, §6, §7
The nature of data set [9]: Pharmacokinetic test in mice. It is filed as in vivo. As to conditions: mouse, plasma; male CD-1 mice, oral gavage 10 mg/kg. As for the experimental part: as §1, with “mice,” for “rats, 3”, “CD-1 mice (20 g to 25” for “SD rats (180-240”, “mice” for “rats”
Data set [10] is described as follows: Thermodynamic solubility test. The following applies: thermodynamic from solid. It is filed as physicochemical. As to the method:
The compound was accurately weighed, and the prepared phosphate buffer (pH 7.4), FeSSIF solution (pH 5.8) and FaSSGF solution (pH 1.6) were added to prepare a solution with a concentration of 4 mg/mL, which was shaken at 1,000 rpm for 1 hour, and then incubated overnight at room temperature. After the incubation, the solution was centrifuged at 12,000 rpm for 10 min to remove undissolved particles, and the supernatant was transferred to a new centrifuge tube. The supernatant was diluted appropriately, then added with an acetonitrile solution containing the internal standard, and quantified using a standard curve prepared with the same matrix.

The conditions of data set [11]: cited from earlier work; for probability of discontinuation due to serious adverse events: patients taking the drug.

The source of these data is US20220204479A1, “PYRIMIDINE COMPOUND AND PREPARATION METHOD THEREFOR” (Wuhan Humanwell Innovative Drug Research And Development …, priority 2019, published 2022).

The half-life is the time needed for the level to fall by half in the phase considered. As usually defined, the IC50 is the concentration at which inhibition is half-maximal. The term Tmax denotes the time at which the peak concentration occurs. For orientation: Cmax means the maximum level reached in the sampled fluid or tissue. As a reminder, the solubility is how much of the substance goes into solution per volume.

Converted amounts (≈) assume the structure as drawn. Read-outs that look alike come from different tables or passages of the source. Bounds are passed on as bounds.

T1 sequence (Q12809 whole entry): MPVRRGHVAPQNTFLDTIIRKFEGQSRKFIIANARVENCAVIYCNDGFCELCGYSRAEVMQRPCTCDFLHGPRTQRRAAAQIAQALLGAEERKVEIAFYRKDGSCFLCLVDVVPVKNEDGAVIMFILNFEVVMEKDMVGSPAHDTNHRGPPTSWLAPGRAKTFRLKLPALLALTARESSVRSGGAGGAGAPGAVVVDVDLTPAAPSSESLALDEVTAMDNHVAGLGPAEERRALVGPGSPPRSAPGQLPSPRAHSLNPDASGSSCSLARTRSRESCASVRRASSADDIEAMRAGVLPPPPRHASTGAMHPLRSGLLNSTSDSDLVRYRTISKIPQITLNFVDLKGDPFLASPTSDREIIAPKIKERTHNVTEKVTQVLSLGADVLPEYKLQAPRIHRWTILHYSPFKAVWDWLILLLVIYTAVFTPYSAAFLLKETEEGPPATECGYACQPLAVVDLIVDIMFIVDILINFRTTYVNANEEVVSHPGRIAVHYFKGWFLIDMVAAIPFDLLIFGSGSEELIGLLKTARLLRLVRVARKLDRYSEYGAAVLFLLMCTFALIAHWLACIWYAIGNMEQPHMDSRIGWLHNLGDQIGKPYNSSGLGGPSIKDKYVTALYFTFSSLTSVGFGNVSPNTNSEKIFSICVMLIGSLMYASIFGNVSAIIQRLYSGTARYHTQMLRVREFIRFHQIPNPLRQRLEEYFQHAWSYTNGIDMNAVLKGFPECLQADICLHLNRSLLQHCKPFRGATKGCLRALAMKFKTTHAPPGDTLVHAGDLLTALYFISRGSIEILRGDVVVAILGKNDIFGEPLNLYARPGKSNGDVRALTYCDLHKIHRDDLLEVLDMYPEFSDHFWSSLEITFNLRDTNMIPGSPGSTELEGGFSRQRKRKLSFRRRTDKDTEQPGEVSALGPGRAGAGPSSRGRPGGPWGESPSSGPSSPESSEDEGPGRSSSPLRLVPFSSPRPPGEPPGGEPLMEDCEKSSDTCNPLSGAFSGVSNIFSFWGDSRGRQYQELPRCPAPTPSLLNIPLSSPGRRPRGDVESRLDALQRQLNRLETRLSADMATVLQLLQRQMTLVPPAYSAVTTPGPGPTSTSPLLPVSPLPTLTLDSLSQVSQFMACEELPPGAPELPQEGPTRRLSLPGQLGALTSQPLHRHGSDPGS

Turning to `O=C(c1cnc(NC2Cc3ccccc3C2)nc1)N1CCC(COCc2cn[nH]n2)CC1` [Compound I-1, (4-(((2H-1,2,3-triazol-4-yl)methoxy)methyl)piperidin-1-yl)(2-((2,3-dihydro-1H-inden-2-yl)amino)pyrimidin-5-yl)methanone], the “Remaining percentage (%) of compound after incubation for 30 min” value (from here on “Remaining percentage (%) of compound”) in data set [1] (human liver microsomes) amounted to 85.6%. This compound had a half-life at 1 µM in data set [1] (human liver microsomes) of 99 min. The IC50 came out at 7930 nM in data set [2]; 2.05 nM in [5]; 8.73 nM in data set [6]; 6.49 nM in data set [7] (rat plasma, 37° C., 3 h, LPA18:2 formation, read-out: IC50, inhibitory effect on activity of ATX enzyme in rat plasma). In addition, the time of peak concentration (Tmax) came out at 30 min in data set [3] (Sprague-Dawley, rat, plasma); 70.2 min in data set [4]; 25.2 min in data set [9]. Also, the AUC(0-t) in data set [3] (Sprague-Dawley, rat, plasma, read-out: AUC0-t) was determined as 5720 ng·h/mL; in data set [4] it was 17600 ng·h/mL; in data set [9], 2390 ng·h/mL. Besides, the Cmax in data set [3] (Sprague-Dawley, rat, plasma, read-out: Cmax) was found to be 3180 ng/mL; in [4] it was 3670 ng/mL; in data set [9], 1860 ng/mL. The “inhibitory effect on ATX enzyme in human plasma compared with control compounds 1 and 2” value in data set [6] (comparison in words) was “higher inhibitory effect on ATX enzyme in human plasma than the control compounds 1 and 2”. In data set [7] (comparison in words), the “inhibitory activity on ATX enzyme in rat plasma compared with control compounds 1 and 2” value was “higher inhibitory activity on ATX enzyme in rat plasma than the control compounds 1 and 2”. In addition, the “hERG IC50/ATX IC50” value in [8] is 7.93/2.05 = 3.87.
On to `CC(OCC1CCN(C(=O)c2cnc(NC3Cc4ccccc4C3)nc2)CC1)c1cn[nH]n1` (centres unmarked) [Compound I-2, (4-((1-(2H-1,2,3-triazol-4-yl)ethoxy)methyl)piperidin-1-yl)(2-((2,3-dihydro-1H-inden-2-yl)amino)pyrimidin-5-yl)methanone], for which, in [1] (human liver microsomes), the “Remaining percentage (%) of compound” value came to 39.65% and the half-life at 1 µM worked out at 24 min. Further, the IC50 in data set [5] came out at 3.39 nM. Besides, in data set [6], the IC50 is 24.7 nM.
As to `O=C(COCCc1cnn[nH]1)N1Cc2cnc(NC3Cc4ccccc4C3)nc2C1` [Control compound 1, reference compound], the “Remaining percentage (%) of compound” value in data set [1] (human liver microsomes) is 41.2%. The same compound came in with a half-life at 1 µM in data set [1] (microsomes) of 24.1 min. Further, the figures for the IC50 in data set [2] and in data set [7] were 6690 nM and 13.6 nM, respectively. The Tmax in data set [3] (Sprague-Dawley, rat, plasma) was found to be 25.2 min; in [4] it was 60 min; in data set [9], 15 min. The results for the AUC(0-t) in data set [3], in data set [4] and in [9] were 4874 ng·h/mL, 10100 ng·h/mL and 2570 ng·h/mL, respectively. Also, the Cmax in [3] stood at 2591 ng/mL; in [4] it was 2390 ng/mL; in data set [9] it was 1500 ng/mL. Also, the solubility came out at 66.5 µg/mL (≈ 164 µM) in [10] (FaSSGF solution, fassgf or other biorelevant, FaSSGF pH 1.6, overnight at room temperature, read-out: Solubility, FaSSGF (pH 1.6)); 18.3 µg/mL (≈ 45.1 µM) in [10] (FeSSIF solution, FeSSIF pH 5.8, overnight at room temperature, read-out: Solubility, FeSSIF (pH 5.8)); 6.3 µg/mL (≈ 15.5 µM) in [10] (phosphate buffer (PBS), aqueous buffer, PBS pH 7.4, overnight at room temperature, read-out: Solubility, PBS (pH 7.4)).
`COC(=O)c1ccc2c(c1)NC(=O)/C2=C(\Nc1ccc(N(C)C(=O)CN2CCN(C)CC2)cc1)c1ccccc1` [Nintedanib]: in data set [11], the “probability of discontinuation due to serious adverse events” value was 26.3%. Moreover, the “incidence of gastrointestinal reactions” value in data set [11] (patients) is at most 50%.
Turning to `Cc1ccc(=O)n(-c2ccccc2)c1` [Pirfenidone], in data set [11], the “probability of discontinuation due to serious adverse events” value is 20.9%.
